For this test, the system named is BDF1 mice, B16 melanoma ip, median survival T/C. The experiment in a line: NCI In Vivo Anticancer Drug Screen. Data for tumor model B16 Melanoma (intraperitoneal) in B6D2F1 (BDF1) mice. As to conditions: endpoint: median survival time, higher = longer survival. In outline: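 Compounds were tested in mice carrying transplantable tumors. Survival or tumor size was recorded, and each value is the treated-group measurement (T) divided by that of the vehicle-treated control group (C).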

Setting [1] is: dose: 25.0 mg/kg/injection, schedule: Q01DX009 (ip), vehicle: saline with Tween-80.
The mark [2] stands for this setting: dose: 50.0 mg/kg/injection, schedule: Q01DX009 (ip), vehicle: saline with Tween-80.
Where [3] appears, read: dose: 100.0 mg/kg/injection, schedule: Q01DX009 (ip), vehicle: saline with Tween-80.
[4] abbreviates: dose: 200.0 mg/kg/injection, schedule: Q01DX009 (ip), vehicle: saline with Tween-80.
Setting [5] is: dose: 100.0 mg/kg/injection, schedule: Q01DX009 (ip), vehicle: Klucel (hydroxypropylcellulose) (HPC).
The mark [6] stands for this setting: dose: 200.0 mg/kg/injection, schedule: Q01DX009 (ip), vehicle: Klucel (hydroxypropylcellulose) (HPC).
Where [7] appears, read: dose: 25.0 mg/kg/injection, schedule: Q01DX009 (ip), vehicle: saline.
The mark [8] stands for this setting: dose: 1.25 mg/kg/injection, schedule: Q01DX009 (ip), vehicle: Klucel (hydroxypropylcellulose) (HPC).
The mark [9] stands for this setting: dose: 2.5 mg/kg/injection, schedule: Q01DX009 (ip), vehicle: Klucel (hydroxypropylcellulose) (HPC).
The mark [10] stands for this setting: dose: 5.0 mg/kg/injection, schedule: Q01DX009 (ip), vehicle: Klucel (hydroxypropylcellulose) (HPC).
Setting [11] is: dose: 10.0 mg/kg/injection, schedule: Q01DX009 (ip), vehicle: Klucel (hydroxypropylcellulose) (HPC).
Where [12] appears, read: dose: 0.75 mg/kg/injection, schedule: Q01DX009 (ip), vehicle: saline.
Setting [13] is: dose: 1.5 mg/kg/injection, schedule: Q01DX009 (ip), vehicle: saline.
The mark [14] stands for this setting: dose: 3.0 mg/kg/injection, schedule: Q01DX009 (ip), vehicle: saline.
Where [15] appears, read: dose: 6.0 mg/kg/injection, schedule: Q01DX009 (ip), vehicle: saline.
The mark [16] stands for this setting: dose: 100.0 mg/kg/injection, schedule: Q04DX003 (ip), vehicle: saline with Tween-80.
Setting [17] is: dose: 200.0 mg/kg/injection, schedule: Q04DX003 (ip), vehicle: saline with Tween-80.
The mark [18] stands for this setting: dose: 25.0 mg/kg/injection, schedule: Q01DX009 (ip), vehicle: Klucel (hydroxypropylcellulose) (HPC).
The mark [19] stands for this setting: dose: 50.0 mg/kg/injection, schedule: Q01DX009 (ip), vehicle: Klucel (hydroxypropylcellulose) (HPC).
Setting [20] is: dose: 12.5 mg/kg/injection, schedule: Q01DX009 (ip), vehicle: Klucel (hydroxypropylcellulose) (HPC).

Values joined by “and” are separate entries in the source; they are usually repeats but may differ in a detail not shown here. Equal entries are not always repeated. Inconclusive results and toxic doses are left out.

As to `Cn1c(N)c(N=O)c(=O)n(C)c1=O`, the T/C was 100 % of control (dose: 90.0 mg/kg/injection, schedule: Q01DX009 (ip), vehicle: saline with Tween-80); 90 % of control (dose: 180.0 mg/kg/injection, schedule: Q01DX009 (ip), vehicle: saline with Tween-80); 100 % of control (dose: 360.0 mg/kg/injection, schedule: Q01DX009 (ip), vehicle: saline with Tween-80).

`O=C(Nc1nncs1)c1cccs1`: the T/C runs as follows: (dose: 12.5 mg/kg/injection, schedule: Q01DX009 (ip), vehicle: saline with Tween-80) 101 % of control; under setting [1], 109 % of control; under setting [2], 121 % of control; under setting [3], 109 % of control; under setting [4], 106 % of control.

In the case of `CCOC(=O)C(C(=O)OCC)c1cc(NC(=O)c2ccccc2)ccc1NC(=O)c1ccccc1`, the T/C by setting is: under setting [3], 95 % of control; under setting [4], 91 % of control; (dose: 400.0 mg/kg/injection, schedule: Q01DX009 (ip), vehicle: saline with Tween-80) 89 % of control.

As for `CC(C)C(Br)C(=O)NC(Cc1ccccc1)C(=O)O` (stereo not drawn), the T/C by setting is: under setting [3], 104 % of control; under setting [4], 95 % of control.

Turning to `O=C(O)c1ccc(SSc2ccc(C(=O)O)cn2)nc1`, the T/C was 88 % of control under setting [5]; 93 % of control (dose: 100.0 mg/kg/injection, schedule: Q04DX003 (ip), vehicle: Klucel (hydroxypropylcellulose) (HPC)); 100 % of control under setting [6]; 97 % of control (dose: 200.0 mg/kg/injection, schedule: Q04DX003 (ip), vehicle: Klucel (hydroxypropylcellulose) (HPC)); 88 % of control (dose: 400.0 mg/kg/injection, schedule: Q01DX009 (ip), vehicle: Klucel (hydroxypropylcellulose) (HPC)); 90 % of control (dose: 400.0 mg/kg/injection, schedule: Q04DX003 (ip), vehicle: Klucel (hydroxypropylcellulose) (HPC)).

`O=C1NC(=O)/C(=C/c2ccccc2)N1`: the T/C by setting is: under setting [5], 100 % of control; under setting [6], 107 % of control.

`Cc1[nH]c(=S)sc1C`: the T/C under setting [7] was 102 % of control; the T/C (dose: 50.0 mg/kg/injection, schedule: Q01DX009 (ip), vehicle: saline) was 91 % of control; the T/C (dose: 100.0 mg/kg/injection, schedule: Q01DX009 (ip), vehicle: saline) is 102 % of control.

For `CC1NCCNCCNCCNC(C)c2cccc1n2` (stereo not drawn), the T/C is, setting by setting: (dose: 6.25 mg/kg/injection, schedule: Q01DX009 (ip), vehicle: saline) 107 % of control; (dose: 12.5 mg/kg/injection, schedule: Q01DX009 (ip), vehicle: saline) 98 % of control; under setting [7], 102 % of control.

For the compound `Cn1ncc2c(N)ncnc21`, the T/C is 102 % of control under setting [8], 111 % of control under setting [9], 105 % of control under setting [10] and 119 % of control under setting [11].

With `O=C1C(N2CCOCC2)=C(N2CC2)C(=O)C(N2CCOCC2)=C1N1CC1`, the T/C runs as follows: under setting [12], 118 % of control; under setting [13], 124 % of control; under setting [14], 120 % of control; under setting [15], 106 % of control.

As for `COc1cc2c(cc1OC)C(c1ccc(O)c(O)c1)CNC2` (stereo not drawn), the T/C was 99 % of control (dose: 50.0 mg/kg/injection, schedule: Q04DX003 (ip), vehicle: saline with Tween-80); 89 % of control under setting [16]; 90 % of control under setting [17].

On to `OC1CCCC2CCCNC12` (stereo not drawn) (tested in a mixture with another compound), for which the T/C under setting [1] was 90 % of control, the T/C under setting [2] is 95 % of control and the T/C under setting [3] is 86 % of control.

As for `Nc1ccc(N=Nc2ccc(S(=O)(=O)O)cc2)cc1`, the T/C was 93 % of control under setting [1]; 97 % of control under setting [2]; 90 % of control and 104 % of control under setting [3].

For the compound `N[C@H](C(=O)O)[C@@H]1CC(Cl)=NO1`, the T/C (dose: 0.25 mg/kg/injection, schedule: Q01DX009 (ip), vehicle: saline) was 93 % of control and 96 % of control and 102 % of control; the T/C under setting [12] was 112 % of control; the T/C under setting [13] is 110 % of control; the T/C under setting [14] was 114 % of control; the T/C under setting [15] is 156 % of control; the T/C (dose: 12.0 mg/kg/injection, schedule: Q01DX009 (ip), vehicle: saline) is 57 % of control.

On to `O=C(OC1CC2CC=CC21)c1ccc([N+](=O)[O-])cc1` (stereo not drawn), for which the T/C is 100 % of control under setting [16]; 94 % of control under setting [17]; 94 % of control (dose: 400.0 mg/kg/injection, schedule: Q04DX003 (ip), vehicle: saline with Tween-80).

Take `COC(=O)CC(=O)c1ccc(C)cc1`: the T/C is, setting by setting: under setting [5], 103 % of control; under setting [6], 95 % of control.

With `CC(COCc1ccccc1)NCc1ccccc1` (stereo not drawn), the T/C reads like this: under setting [18], 96 % of control; under setting [19], 90 % of control.

With `CC1(C)NC(=O)C(/C=C/c2ccccc2)O1` (stereo not drawn), the T/C by setting is: (dose: 6.25 mg/kg/injection, schedule: Q01DX009 (ip), vehicle: Klucel (hydroxypropylcellulose) (HPC)) 96 % of control; under setting [20], 109 % of control; under setting [18], 121 % of control; under setting [5], 112 % of control; under setting [6], 86 % of control.

As to `Nc1nc(=S)c2[nH]cnc2[nH]1`, the T/C runs as follows: (dose: 0.25 mg/kg/injection, schedule: Q01DX009 (ip), vehicle: saline sonified) 100 % of control; (dose: 0.25 mg/kg/injection, schedule: Q01DX009 (ip), vehicle: suspension in saline) 109 % of control; (dose: 0.5 mg/kg/injection, schedule: Q01DX009 (ip), vehicle: saline sonified) 112 % of control and 115 % of control; (dose: 0.5 mg/kg/injection, schedule: Q01DX009 (ip), vehicle: suspension in saline) 120 % of control; (dose: 1.0 mg/kg/injection, schedule: Q01DX009 (ip), vehicle: saline sonified) 100 % of control; (dose: 1.0 mg/kg/injection, schedule: Q01DX009 (ip), vehicle: suspension in saline) 105 % of control. Besides, the T/C (dose: 2.0 mg/kg/injection, schedule: Q01DX009 (ip), vehicle: saline sonified) was 95 % of control and 105 % of control; the T/C (dose: 2.0 mg/kg/injection, schedule: Q01DX009 (ip), vehicle: saline with Tween-80) is 111 % of control; the T/C (dose: 2.0 mg/kg/injection, schedule: Q01DX009 (ip), vehicle: suspension in saline) is 107 % of control.

As for `C=CC(=O)N1CN(C(=O)C=C)CN(C(=O)C=C)C1`, the T/C reads like this: (dose: 0.78 mg/kg/injection, schedule: Q01DX009 (ip), vehicle: saline with Tween-80) 110 % of control; (dose: 1.56 mg/kg/injection, schedule: Q01DX009 (ip), vehicle: saline with Tween-80) 114 % of control; (dose: 3.12 mg/kg/injection, schedule: Q01DX009 (ip), vehicle: saline with Tween-80) 116 % of control.

As for `CCN(CC)CCCC(C)Nc1cc(C)nc(Nc2nc3cc(Cl)c(Cl)cc3[nH]2)n1` (stereo not drawn), the T/C is, setting by setting: under setting [8], 94 % of control; under setting [9], 95 % of control; under setting [10], 96 % of control; under setting [11], 91 % of control.

In the case of `CCN(CC)CCCC(C)Nc1c2ccc(Cl)cc2nc2cc(Cl)ccc12` (stereo not drawn), the T/C runs as follows: under setting [20], 106 % of control; under setting [18], 106 % of control; under setting [19], 122 % of control.

Turning to `CCCCNC(C)(C)C(SSSC(c1ccc(Cl)cc1)C(C)(C)NCCCC)c1ccc(Cl)cc1` (stereo not drawn), the T/C runs as follows: under setting [20], 97 % of control; under setting [18], 89 % of control.

For the origin of these results see PubChem BioAssay AID192 (DTP/NCI, 2004).
